Test results taken from patent publication US6514997B2, “Antipicornaviral compounds and compositions, their pharmaceutical uses, and materials for their synthesis” (Agouron Pharmaceuticals, Inc., priority 1999, dated 2003).
Where two headings read alike, the source gives them in different places.

How the values were obtained:
[1] = tested on: HRV-14; experiment: Antirhinoviral H1-HeLa cell culture assay (XTT cell protection, EC50), HRV-14; assay type: cell-based, human rhinovirus (HRV) serotype-14 in H1-HeLa cells; conditions: Rhinovirus B, HRV14, H1-HeLa
In short: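 XTT dye reduction (450/650 nm) measured survival of H1-HeLa cells two days after HRV-14 infection at m.o.i. 0.13 in the presence of compound, giving EC50. The therapeutic index is CC50 divided by EC50.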

[2] = biological target: T1, Recombinant rhinovirus 3C protease, serotype 14 (Human rhinovirus 14, UniProt P03303); experiment: Inhibition of rhinovirus 3C protease (FRET assay, kobs/[I]), serotype 14; assay type: biochemical; conditions: pH 7.6, read-out: kobs/[I] (3C protease inhibition activity)
T1 construct: Recombinant rhinovirus 3C proteases; made in house
In short: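 kobs/[I] values came from progress curves of reactions started by adding 50-100 nM protease to buffer (50 mM tris pH 7.6, 1 mM EDTA, 2% DMSO) containing compound and ~1 μM quenched DABCYL-EDANS substrate. Rising EDANS fluorescence reported cleavage.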

[3] = tested on: strains of human rhinovirus (HRV); experiment: Antirhinoviral H1-HeLa cell culture assay (XTT cell protection, EC50), other HRV strains; assay type: cell-based, human rhinovirus in H1-HeLa cells; conditions: read-out: EC50
In short: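 Protection of H1-HeLa cells from rhinovirus was scored two days post-infection via XTT dye reduction read at 450/650 nm, alongside mock-infected cells for toxicity. CC50/EC50 gives the therapeutic index.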

[4] = Cytotoxicity (CC50) in mock-infected H1-HeLa cells, XTT dye reduction; assay type: cell-based, human; conditions: human, H1-HeLa cells, mock-infected
In short: (§1)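 XTT dye reduction (formazan, 450/650 nm) in H1-HeLa cells, mock-infected, gave CC50.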

[5] = tested on: H1-HeLa cells; experiment: as above; assay type: cell-based, human
In short: as §1

[6] = Human rhinovirus sp., HRV3, H1-HeLa, HRV-3
[7] = Human rhinovirus sp., HRV9, H1-HeLa, HRV-9
[8] = Human rhinovirus sp., HRV10, H1-HeLa, HRV-10
[9] = Human rhinovirus sp., HRV16, H1-HeLa, HRV-16
[10] = Human rhinovirus sp., HRV25, H1-HeLa, HRV-25
[11] = Human rhinovirus sp., HRV39, H1-HeLa, HRV-39

T1 sequence (P03303 1538-1719): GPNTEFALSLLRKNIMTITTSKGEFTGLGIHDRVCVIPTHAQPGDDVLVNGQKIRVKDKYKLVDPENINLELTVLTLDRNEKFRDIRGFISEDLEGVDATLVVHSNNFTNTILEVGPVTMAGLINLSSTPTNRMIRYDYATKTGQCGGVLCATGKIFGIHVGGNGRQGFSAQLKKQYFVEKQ

Structure (SMILES): Cc1cc(C(=O)Nc2cccn([C@@H](Cc3ccc(F)c(F)c3)C(=O)N[C@H](/C=C/C(=O)OC(C)(C)C)C[C@@H]3CCNC3=O)c2=O)no1 [Compound 46]
- EC50 [1]: 0.006 µM
- kinact/KI ([2]; HRV-14): 350000 M⁻¹ s⁻¹
- EC50 ([3]; H1-HeLa, HRV-1A): 0.182 µM
- EC50 ([3]; H1-HeLa, HRV-2): 0.145 µM
- EC50 ([3]; H1-HeLa, HRV-23): 0.011 µM
- EC50 ([3]; Human rhinovirus sp., H1-HeLa, HRV-Hanks): 0.005 µM
- EC50 [3, 6]: 0.045 µM
- EC50 [3, 7]: 0.151 µM
- EC50 [3, 8]: 0.135 µM
- EC50 ([3]; Human rhinovirus sp., HRV11, H1-HeLa, HRV-11): 0.003 µM
- EC50 ([3]; Human rhinovirus sp., HRV13, H1-HeLa, HRV-13): 0.078 µM
- EC50 [3, 9]: 0.16 µM
- EC50 ([3]; Human rhinovirus sp., HRV19, H1-HeLa, HRV-19): 0.02 µM
- EC50 [3, 10]: 0.188 µM
- EC50 [3, 11]: 0.227 µM
- EC50 ([3]; Human rhinovirus sp., HRV78, H1-HeLa, HRV-78): 0.025 µM
- CC50 at 2 days ([4]; line of HRV-14): > 10 µM
- CC50 ([5]; line of HRV-1A): > 10 µM
- CC50 ([5]; line of HRV-2): > 10 µM
- CC50 ([5]; line of HRV-3): > 10 µM
- CC50 ([5]; line of HRV-9): > 10 µM
- CC50 ([5]; line of HRV-10): > 10 µM
- CC50 ([5]; line of HRV-11): > 10 µM
- CC50 ([5]; line of HRV-13): > 10 µM
- CC50 ([5]; line of HRV-16): > 10 µM
- CC50 ([5]; line of HRV-19): > 10 µM
- CC50 ([5]; line of HRV-23): > 10 µM
- CC50 ([5]; line of HRV-25): > 10 µM
- CC50 ([5]; line of HRV-39): > 10 µM
- CC50 ([5]; line of HRV-78): > 10 µM
- CC50 ([5]; line of HRV-Hanks): > 10 µM

Structure (SMILES): Cc1cc(C(=O)Nc2cccn([C@@H](Cc3ccc(F)c(F)c3)C(=O)N[C@H](/C=C/C(=O)OC3CCCC3)C[C@@H]3CCNC3=O)c2=O)no1 [Compound 49, trans-(2′S,3″″″S,4S)-4-[3′-(3″,4″-Difluorophenyl)-2′-(3′″-{[1″″-(5′″″-methylisoxazol-3′″″-yl)methanoyl]amino}-2″″-oxo-2″″H-pyridin-1″″-yl)propanoylamino]-5-(2″″″-oxopyrrolidin-3″″″-yl)pent-2-enoic Acid Cyclopentyl Ester]
- EC50 [1]: 0.004 µM
- kinact/KI ([2]; HRV-14): 1.2e+06 M⁻¹ s⁻¹
- EC50 ([3]; H1-HeLa, HRV-1A): 0.131 µM
- EC50 ([3]; H1-HeLa, HRV-2): 0.083 µM
- EC50 [3, 6]: 0.041 µM
- EC50 [3, 7]: 0.095 µM
- EC50 [3, 8]: 0.076 µM
- EC50 [3, 9]: 0.032 µM
- EC50 [3, 10]: 0.371 µM
- EC50 [3, 11]: 0.145 µM
- CC50 at 2 days ([4]; line of HRV-14): > 10 µM
- CC50 ([5]; line of HRV-1A): > 10 µM
- CC50 ([5]; line of HRV-2): > 10 µM
- CC50 ([5]; line of HRV-3): > 10 µM
- CC50 ([5]; line of HRV-9): > 10 µM
- CC50 ([5]; line of HRV-10): > 10 µM
- CC50 ([5]; line of HRV-16): > 10 µM
- CC50 ([5]; line of HRV-25): > 10 µM
- CC50 ([5]; line of HRV-39): > 10 µM

Structure (SMILES): C#CC[C@@H](C(=O)N[C@H](/C=C/C(=O)OC(C)C)C[C@@H]1CCNC1=O)n1cccc(NC(=O)c2cc(C)on2)c1=O [Compound 50, trans-(2′S,3′″″S,4S)-4-[2′-(3″- {[1′″-(5″″-Methylisoxazol-3″″-yl)methanoyl]amino}-2′″-oxo-2′″H-pyridin-1′″-yl)pent-4″-ynoylamino]-5-(2′″″-oxopyrrolidin-3′″″-yl)pent-2-enoic Acid Isopropyl Ester]
- EC50 [1]: 0.068 µM
- kinact/KI ([2]; HRV-14): 100000 M⁻¹ s⁻¹
- EC50 ([3]; H1-HeLa, HRV-1A): 0.2 µM
- EC50 ([3]; H1-HeLa, HRV-2): 0.105 µM
- EC50 [3, 6]: 0.117 µM
- EC50 [3, 7]: 0.122 µM
- EC50 [3, 8]: 0.75 µM
- EC50 [3, 9]: 0.185 µM
- EC50 [3, 10]: 0.371 µM
- EC50 [3, 11]: > 1 µM
- CC50 at 2 days ([4]; line of HRV-14): > 10 µM
- CC50 ([5]; line of HRV-1A): > 10 µM
- CC50 ([5]; line of HRV-2): > 10 µM
- CC50 ([5]; line of HRV-3): > 10 µM
- CC50 ([5]; line of HRV-9): > 10 µM
- CC50 ([5]; line of HRV-10): > 10 µM
- CC50 ([5]; line of HRV-16): > 10 µM
- CC50 ([5]; line of HRV-25): > 10 µM
- CC50 ([5]; line of HRV-39): > 10 µM

Structure (SMILES): CC[C@@H](C(=O)N[C@H](/C=C/C(=O)OC(C)C)C[C@@H]1CCNC1=O)n1cccc(NC(=O)c2cc(C)on2)c1=O [Compound 52, trans-(2′S,3′″″S,4S)-4-[2′-(3″-{[1′″-(5″″-Methylisoxazol-3″″-yl)methanoyl]amino}-2′″oxo-2′″H-pyridin-1′″-yl)butanoylamino]-5-(2′″″-oxopyrrolidin-3′″″-yl)pent-2-enoic Acid Isopropyl Ester]
- EC50 [1]: 0.181 µM
- kinact/KI ([2]; HRV-14): 36000 M⁻¹ s⁻¹
- EC50 [3, 7]: 0.473 µM
- EC50 [3, 8]: 0.176 µM
- EC50 [3, 9]: 0.28 µM
- EC50 [3, 10]: 0.109 µM
- EC50 [3, 11]: 0.337 µM
- CC50 at 2 days ([4]; line of HRV-14): > 10 µM
- CC50 ([5]; line of HRV-9): > 10 µM
- CC50 ([5]; line of HRV-10): > 10 µM
- CC50 ([5]; line of HRV-16): > 10 µM
- CC50 ([5]; line of HRV-25): > 10 µM
- CC50 ([5]; line of HRV-39): > 10 µM

Structure (SMILES): Cc1cc(C(=O)Nc2cccn([C@@H](Cc3ccc(F)c(F)c3)C(=O)N[C@H](/C=C/C(=O)OC3CCCCC3)C[C@@H]3CCNC3=O)c2=O)no1 [Compound 54, trans-(2′S,3″″″S,4S)-4-[3′-(3″,4″-Difluorophenyl)-2′-(3′″-{[1″″-(5′″″-methylisoxazol-3′″″-yl)methanoyl]amino}-2″″-oxo-2″″H-pyridin-1″″-yl)propanoylamino]-5-(2″″″-oxopyrrolidin-3″″″-yl)pent-2-enoic Acid Cyclohexyl Ester]
- EC50 [1]: 0.045 µM
- kinact/KI ([2]; HRV-14): 244000 M⁻¹ s⁻¹
- EC50 ([3]; H1-HeLa, HRV-1A): 0.49 µM
- EC50 ([3]; H1-HeLa, HRV-2): 0.148 µM
- EC50 [3, 7]: 0.517 µM
- EC50 [3, 8]: 0.131 µM
- EC50 [3, 9]: 0.142 µM
- EC50 [3, 10]: 0.215 µM
- EC50 [3, 11]: 0.346 µM
- CC50 at 2 days ([4]; line of HRV-14): > 10 µM
- CC50 ([5]; line of HRV-1A): > 10 µM
- CC50 ([5]; line of HRV-2): > 10 µM
- CC50 ([5]; line of HRV-9): > 10 µM
- CC50 ([5]; line of HRV-10): > 10 µM
- CC50 ([5]; line of HRV-16): > 10 µM
- CC50 ([5]; line of HRV-25): > 10 µM
- CC50 ([5]; line of HRV-39): > 10 µM

Structure (SMILES): C#CC[C@@H](C(=O)N[C@H](/C=C/C(=O)OC1CCCCC1)C[C@@H]1CCNC1=O)n1cccc(NC(=O)c2cc(C)on2)c1=O [Compound 55, trans-(2′S,3′″″S,4S)-4-[2′-(3″-{[1′″-(5″″-Methylisoxazol-3″″-yl)methanoyl]amino}-2′″-oxo-2′″H-pyridin-1′″-yl)pent-4″-ynoylamino]-5-(2′″″-oxopyrrolidin-3′″″-yl)pent-2-enoic Acid Cyclohexyl Ester]
- EC50 [1]: 0.173 µM
- kinact/KI ([2]; HRV-14 3C protease): 34000 M⁻¹ s⁻¹
- EC50 ([3]; H1-HeLa, HRV-1A): 0.52 µM
- EC50 [3, 7]: 0.531 µM
- EC50 [3, 8]: 0.195 µM
- EC50 [3, 10]: 0.515 µM
- CC50 at 2 days ([4]; HRV-14): > 10 µM
- CC50 ([5]; HRV-1A): > 10 µM
- CC50 ([5]; HRV-9): > 10 µM
- CC50 ([5]; HRV-10): > 10 µM
- CC50 ([5]; HRV-25): > 10 µM

Structure (SMILES): Cc1cc(C(=O)Nc2cccn([C@@H](Cc3ccc(F)c(F)c3)C(=O)N[C@H](/C=C/C(=O)OC3CCCCCC3)C[C@@H]3CCNC3=O)c2=O)no1 [Compound 56, trans-(2′S,3″″″S,4S)-4-[3′-(3″,4″-Difluorophenyl)-2′-(3′″-{[1″″-(5′″″-methylisoxazol-3′″″-yl)methanoyl]aminol}-2″″-oxo-2″″H-pyridin-1″″-yl)propanoylamino]-5-(2″″″-oxopyrrolidin-3″″″-yl)pent-2-enoic Acid Cycloheptyl Ester]
- EC50 [1]: 0.163 µM
- kinact/KI ([2]; HRV-14 3C protease): 99000 M⁻¹ s⁻¹
- EC50 ([3]; H1-HeLa, HRV-1A): 0.504 µM
- EC50 [3, 7]: 0.546 µM
- EC50 [3, 8]: 0.158 µM
- EC50 [3, 10]: 0.4 µM
- CC50 at 2 days ([4]; HRV-14): > 10 µM
- CC50 ([5]; HRV-1A): > 10 µM
- CC50 ([5]; HRV-9): > 10 µM
- CC50 ([5]; HRV-10): > 10 µM
- CC50 ([5]; HRV-25): > 10 µM

Structure (SMILES): C#CC[C@@H](C(=O)N[C@H](/C=C/C(=O)OC1CCCCCC1)C[C@@H]1CCNC1=O)n1cccc(NC(=O)c2cc(C)on2)c1=O [Compound 57, trans-(2′S,3′″″S,4S)-4-[2′-(3″-{[1′″-(5″″-Methylisoxazol-3″″-yl)methanoyl]amino}-2′″-oxo-2′″H-pyridin-1′″-yl)pent-4″-ynoylamino]-5-(2′″″-oxopyrrolidin-3′″″-yl)pent-2-enoic Acid Cycloheptyl Ester]
- EC50 [1]: 0.422 µM
- kinact/KI ([2]; HRV-14 3C protease): 47000 M⁻¹ s⁻¹
- EC50 ([3]; H1-HeLa, HRV-1A): 1.61 µM
- EC50 [3, 7]: 1.5 µM
- EC50 [3, 8]: 0.482 µM
- EC50 [3, 10]: 0.511 µM
- CC50 at 2 days ([4]; HRV-14): > 10 µM
- CC50 ([5]; HRV-1A): > 10 µM
- CC50 ([5]; HRV-9): > 10 µM
- CC50 ([5]; HRV-10): > 10 µM
- CC50 ([5]; HRV-25): > 10 µM
